# Key:
# [1] = system: de novo GTP synthesis pathway; experiment: LC-MS metabolomics profiling; assay type: cell-based, human; settings: IC80, 6 h; for GDP and GTP levels: BT478, BT530; for AICAR levels: b56: accumulates in only some conditions
# Procedure: Metabolites were extracted with a solution of cold acetonitrile/methanol/water (2:2:1) from the cell pellets and protein precipitation was performed by three cycles of freeze/thawing and sonication. The LC-MS metabolomics analysis was performed as previously described.[75] Briefly, a UHPLC-MS system consisting of an Agilent 6550 qToF coupled to an Agilent 1290 binary pump UHPLC system was used. The source parameters were as follows: Gas temperature, 150 °C at 14 L/min and 45 psig; Sheath gas temperature, 325 °C at 12 L/min; Capillary and nozzle voltages were set to −2.0 kV iFunnel conditions were changed from default to-30 V DC, High pressure funnel drop −100 V and RF voltage of 110 V, low pressure funnel drop −50 V and RF voltage of 60 V. Chromatographic separation was achieved by ion-paired chromatography. In brief, […] of each sample was injected onto Agilent ZORBAX Extend-C18 (150 mm 3 2.1 mm i.d.; 1.8 mm) column using tributylamine (TBA) as an ion paring agent (solvent A: 3% methanol, 97% water 10 mM TBA, 15 mM Acetic acid, solvent B: 100% methanol). The linear gradient employed was as follows: 0–2.5 min 99% A, 2.5–7.5 min decrease to 80% A, 7.5–13 min to 55% B and finally 13–15 min to 99% B and held for 1 min. The column was re-generated for 2 min at 1% B. The flow rate was set to […]. The column temperature was maintained at 25°C. Skyline was used for data processing of metabolites in our library of standards using known retention times and MS/MS spectra. Integrated peak areas for the metabolites was exported for further statistical and metabolite enrichment analysis by using online MetaboAnalyst (https://www.metaboanalyst.ca/).
# [2] = Brain homogenate binding, equilibrium dialysis; assay type: in vitro ADME, mouse; settings: 2 μM, 4 h, 37°C
# Procedure: The samples were applied to a dialysis well plate and sealed with dialysis membrane. Dialysis buffer (100 mM sodium phosphate pH 7.4, 150 mM NaCl) was applied to opposite side of the membrane (receiver well of the plate), and samples were incubated at 37°C with 5% CO2 for 4 h. Following completion of incubation period, samples were recovered from each side of the dialysis membrane and processed by protein precipitation, and analysis by LC-MS/MS for compound concentration. A corresponding set of samples was also prepared and stop solution (acetonitrile containing 200 ng/mL tolbutamide and 200 ng/mL labetalol) was immediately added, and samples were obtained from each side of the dialysis plate for mass spectrometric analysis.
# [3] = read-out: clinically relevant plasma Cmax concentration; cited from earlier work
# melanoma-BM = experiment: Pre-treatment melanoma-BM PDX model; assay type: in vivo, mice; settings: pre-treated BMICs
# Excerpt: We decided to focus primarily on lung-BM for our in vivo experiments because they account for over 50% of all BM cases. […] This phenotype was also recapitulated in a melanoma-BM PDX model (Figures S2A and S2B).
# Fig S2. PDX m odels m im ic patient data, related to Figure 3. a, Representative IVIS bioluminescence images of […]
# imaging system. Comparisons were made via a two-tailed unpaired t-test and data are presented as mean ± SED from 4-5 technical replicates. […]
# following intracranial engraftment of patient-der ived BMICs. Comparisons were made via a Log-rank (Mantel-Cox) test, P value is indicated. c, CRUK0748, a patient- derived lung tumor cell line that metastasized to the brain of the patient it was retrieved from, was confirmed to metastasize to the brains of mice in our animal models following intrathoracic injection. CRUK0733, a patient-derived lung tumor cell line that has not metastasized to the brain of […]
# anti-proliferative effect on BMICs isolated from the brains of mice following CRUK0748 metastasis to the brain.
# (§1) (1 picture or pasted object on this page, not shown here)
# [4] = system: primary lung CRUK0748 cell line; experiment: Orthotopic injection of CRUK0748, daily oral gavage treatment; assay type: in vivo, mice; settings: 100 mg/kg daily oral gavage, vs placebo
# Excerpt: Next, we injected mice orthotopically with the primary lung CRUK0748 cell line and treated them daily as described earlier (see Figure S3A).
# All experimental procedures involving animal work has been reviewed and approved by McMaster University Animal Research Ethics Board. Non-obese diabetic-severe combined immunodeficient IL2r γ ^null (NSG) mice are used for all experiments. Equal numbers of male and female mice were used for all experiments. Healthy mice were 6–8 weeks at time of use. Mice are anesthetized by gas anesthesia using isoflurane (4% induction, 2.5% maintenance) before procedure. Cells were engineered to express firefly luciferase and were injected intracardially, orthotopically, or intracranially as previously described.[13]^,[14]^,[63]^,[64]^,[65] […] Mice are monitored weekly for signs of illness until endpoint.
# Fig S3. MPA m ust cross the blood brain barrier to eff ectively slow the progression of BM over tim e, related to Figures 3 and 4. a, Mice were either orthotopically (intratho racically) or intracardiac injected with lung BMICs, […]
# seven days post-injection by IVIS, (c), no significant reduction in tumor burden following t reatment completion […]
# to placebo, but (f) had the same number of human cells detected in their brains following humane endpoint by flow cytometry. n.s. = not significant.
# as §1
# patient-derived BMICs = experiment: Clonogenic sphere formation assay; assay type: cell-based, human; settings: limiting dilution and clonogenic sphere formation assays, IC80
# Procedure: To assess tumor sphere forming capacity under clonogenic conditions, neurospheres were dissociated into single cells and plated at a low density of 200 cells/well in low-binding tissue culture-treated 96-well plates in serum-free media as previously described.[14]^,[66]^,[67]^,[68]^,[69] Cells were incubated with drug (IC80) or DMSO control, in triplicate, and incubated at 37°C with a humidified atmosphere of 5% CO2. The number of spheres per well were manually counted seven days later. The results were illustrated and analyzed for significance using GraphPad Prism 8 software.
# [5] = system: primary CRUK0748 lung tumor cells; experiment: Pre-treatment model, intrathoracic engraftment of primary lung tumor cells; assay type: in vivo, mice; settings: cells pre-treated in vitro
# Procedure: Mice injected with MPA-treated cells also experienced a significant increase in median survival time of 6 days compared to the mice injected with vehicle-treated cells (Figure 3H).
# BMICs were dissociated into single cell suspensions and resuspended in phosphate buffered saline (PBS, Wisent Bio) with 2 mM EDTA. Cells were stained with APC-conjugated anti-human TRA-1-85 (CD147; Cat # 130-128-900, Miltenyi Biotec) and incubated for 15 min at room temperature. The viability dye 7-Aminoactinomycin D (7-AAD; Cat # 00-6993-50, eBioscience) was used to exclude dead cells; incubation with 7-AAD allows for penetration of compromised membranes and binding to DNA.[74] Live cells were analyzed using Summit 5.4 software on MoFlo XDP cell sorter (Beckman Coulter) to confirm human BMIC metastasis to the brain.
compound,measurement,setting,value
COc1c(C)c2c(c(O)c1C/C=C(\C)CCC(=O)OCCN1CCCC1)C(=O)OC2 [Compound 3],GDP and GTP levels,[1],significantly reduced
same,levels of dihydroorotic acid,[1],did not influence
same,AICAR levels,[1],accumulate
same,% Bound,[2],Not Recover ed
same,% Unbound,[2],Not Recover ed
same,mass of compound following completion of the brain homogenate assay,[2],could not be detected
"COc1c(C)c2c(c(O)c1C/C=C(\C)CCC(=O)O)C(=O)OC2 [MPA, Mycophenolic acid]",Cmax,[3],10 µM
same,brain tumor burden and survival phenotype,melanoma-BM,recapitulated
same,number of human cells detected in mouse brains,"[4]; humane endpoint, flow cytometry",no significant difference
same,survival,[4],survived significantly longer
same,GDP and GTP levels,[1],significantly reduced
same,levels of dihydroorotic acid,[1],did not influence
same,AICAR levels,[1],accumulate
same,% Unbound,[2],34.1%
same,frequency of stemness in BMIC lines,patient-derived BMICs,significantly reduces the frequency of stemness
same,TRA-1-85-positive human cells detected in brains,"[5]; humane endpoint, flow cytometry, vs vehicle",significantly fewer
same,increase in median survival time,"[5]; intrathoracic injection, vs vehicle-treated cells",6 days

# Reference: article PMC11513854, “De novo GTP synthesis is a metabolic vulnerability for the interception of brain metastases” (Cell Reports Medicine, 2024)
